# Measurements taken from paper PMC12316058 (Nature chemical biology, 2024).
# Legend:
# Cs (R)-Bdh = target: T1, Cs (R)-Bdh (Clostridium saccharoperbutylacetonicum, UniProt M1MWX5); assay: specific activity, absorbance at […] nm; type: biochemical; details: 10 mM m-BDO, 4 mM NADP+, 50 mM glycine-NaOH pH 10.0
# T1 sequence (M1MWX5 1-361): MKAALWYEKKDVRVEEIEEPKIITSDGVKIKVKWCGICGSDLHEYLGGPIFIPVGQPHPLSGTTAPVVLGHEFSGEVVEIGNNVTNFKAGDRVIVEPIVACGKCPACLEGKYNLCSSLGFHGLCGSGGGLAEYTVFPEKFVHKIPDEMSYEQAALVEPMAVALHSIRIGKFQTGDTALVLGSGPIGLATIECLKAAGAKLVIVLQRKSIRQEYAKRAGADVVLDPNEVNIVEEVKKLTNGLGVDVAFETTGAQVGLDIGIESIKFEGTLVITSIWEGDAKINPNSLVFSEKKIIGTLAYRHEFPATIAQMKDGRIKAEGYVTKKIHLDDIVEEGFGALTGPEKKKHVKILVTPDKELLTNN
# Ll Nox = target: T2, Ll Nox (Lactococcus cremoris, UniProt A2RIB7); assay: absorbance at […] nm, initial rates; type: biochemical; details: 50 mM Tris-Cl pH 7.0, 37 °C; O2 as acceptor
# T2 sequence (A2RIB7 1-446): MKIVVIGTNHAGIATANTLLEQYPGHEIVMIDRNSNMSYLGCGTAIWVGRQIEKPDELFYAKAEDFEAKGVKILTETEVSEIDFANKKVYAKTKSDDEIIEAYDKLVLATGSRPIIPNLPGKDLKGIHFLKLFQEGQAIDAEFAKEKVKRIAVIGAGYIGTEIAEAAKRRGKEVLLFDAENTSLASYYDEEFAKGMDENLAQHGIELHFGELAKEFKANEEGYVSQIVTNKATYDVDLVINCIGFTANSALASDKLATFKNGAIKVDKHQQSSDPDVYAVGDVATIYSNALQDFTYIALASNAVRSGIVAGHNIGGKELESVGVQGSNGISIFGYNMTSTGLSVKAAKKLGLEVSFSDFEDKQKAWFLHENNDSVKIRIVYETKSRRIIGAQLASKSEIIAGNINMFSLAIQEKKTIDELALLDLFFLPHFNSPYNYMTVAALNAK
Compound,specific activity (Cs (R)-Bdh),kcat/Km app (Ll Nox)
NC(=O)c1ccc[n+]([C@@H]2O[C@H](COP(=O)(O)OP(=O)(O)OC[C@H]3O[C@@H](n4cnc5c(N)ncnc54)[C@H](OP(=O)(O)O)[C@@H]3O)[C@@H](O)[C@H]2O)c1 [NADP+],We subsequently confirmed specific activity with NADP^+,–
NC(=O)C1=CN([C@@H]2O[C@H](COP(=O)(O)O)[C@@H](O)[C@H]2O)C=CC1 [NMNH],–,"Ll Nox WT (gray) and Nox Ortho (yellow) toward NADH, NADPH and NMNH"
